Tests used:
[1] = Octanol-water partition coefficient, log P of the compound; assay type: physicochemical
Bacillus subtilis = experiment: Antimicrobial activity against Bacillus subtilis MTCC 2423 after 24 hr by serial dilution method; assay type: functional
Escherichia coli = experiment: Antimicrobial activity against Escherichia coli MTCC 739 after 24 hr by serial dilution method; assay type: functional
Candida albicans = experiment: Antimicrobial activity against Candida albicans MTCC 227 after 2 days by serial dilution method; assay type: functional
Aspergillus niger = experiment: Antimicrobial activity against Aspergillus niger MTCC 2425 after 7 days by serial dilution method; assay type: functional
Staphylococcus aureus = experiment: Antimicrobial activity against Staphylococcus aureus MTCC 1430 after 24 hr by serial dilution method; assay type: functional

Structure (SMILES)	logP [1]	-logMIC (Bacillus subtilis)	-logMIC (Escherichia coli)	-logMIC (Candida albicans)	-logMIC (Aspergillus niger)	-logMIC (Staphylococcus aureus)
CC(C)[C@@H]1CC[C@@H](C)C[C@H]1OC(=O)c1ccc([N+](=O)[O-])cc1[N+](=O)[O-]	4.73	2.05	2.35	2.05	2.05	2.35
CC(C)[C@@H]1CC[C@@H](C)C[C@H]1OC(=O)c1ccc([N+](=O)[O-])cc1	4.78	2.02	1.99	2.29	2.18	2.29
CC(C)[C@@H]1CC[C@@H](C)C[C@H]1OC(=O)c1cccc([N+](=O)[O-])c1	4.78	1.99	2.29	2.33	2.29	2.29
CC(C)[C@@H]1CC[C@@H](C)C[C@H]1OC(=O)c1ccc(Cl)cc1Cl	5.86	1.96	2.02	1.72	1.95	2.02
CC(C)[C@@H]1CC[C@@H](C)C[C@H]1OC(=O)c1ccccc1[N+](=O)[O-]	4.78	2.03	2.29	2.29	2.17	1.99
CC(C)[C@@H]1CC[C@@H](C)C[C@H]1OC(=O)c1ccc(Cl)cc1	5.34	1.97	1.67	1.67	2.05	1.88
CC(C)[C@@H]1CC[C@@H](C)C[C@H]1OC(=O)c1cccc(Cl)c1	5.34	1.97	1.88	1.97	1.97	1.97
CC(C)[C@@H]1CC[C@@H](C)C[C@H]1OC(=O)c1ccc(Br)cc1	5.61	2.04	2.02	1.85	2.04	1.98
CC(C)[C@@H]1CC[C@@H](C)C[C@H]1OC(=O)c1ccccc1Cl	5.34	1.91	2.1	1.97	2.1	1.97
CC(C)[C@@H]1CC[C@@H](C)C[C@H]1OC(=O)c1cccc(Br)c1	5.61	1.96	1.88	2.04	2.04	1.96
CC(C)[C@@H]1CC[C@@H](C)C[C@H]1OC(=O)c1ccccc1Br	5.61	2.04	1.98	2.04	2.04	2.04
OC(Cn1cncn1)(Cn1cncn1)c1ccc(F)cc1F [FLUCONAZOLE]				2.64	2.64	
CC(C)[C@@H]1CC[C@@H](C)C[C@H]1OC(=O)c1ccccc1 [MENTHYL BENZOATE]	4.82	2.01	2.01	1.92	1.92	1.92
CCn1cc(C(=O)O)c(=O)c2cc(F)c(N3CCNCC3)cc21 [NORFLOXACIN]		2.61	2.61			2.61
